Source: patent US20230322756A1, “FUSED IMIDAZOLE DERIVATIVE, PREPARATION METHOD THEREFOR, AND MEDICAL USE THEREOF” (JIANGSU HENGRUI MEDICINE CO., LTD., priority 2020, published 2023)

These molecules were tested against GLP-1 receptor (Homo sapiens (Human), UniProt P43220) (assay: Agonist activity against GLP-1 receptor, CRE-luciferase reporter (ONE-Glo) in CHO-K1/CRE-luc/GLP-1 receptor cells). Details: 6 h incubation.
Type: cell-based
Text: This experiment was intended to test the agonist activity of the compound molecules against the GLP-1 receptor and evaluate the in vitro activity of the molecules according to EC50. The experiment adopted a ONE-Glo™ Luciferase Assay System (Promega, E6110). Under the action of compound molecules, GLP-1R downstream signaling pathways were activated to cause elevated cAMP level. The combination of cAMP and CRE could start the transcription expression of CRE downstream luciferase genes, the luciferase could emit fluorescence when reacting with substrates thereof, and the activity of the compound for agonizing GLP-1 receptors was reflected by measuring fluorescence signals through a ONE-Glo™ reagent.
Stably-expressed CHO-K1/CRE-luc/GLP-1 receptor cell strains (self-construction of GLP-1 receptor plasmid; CRE-luc plasmid Promega E8471) were constructed. CHO-K1/CRE-luc/GLP-1 receptor cells were digested, and resuspended after centrifugation. […] The plate was incubated in an incubator for 16 h (37° C., 5% CO2).
The compound was dissolved in DMSO to prepare a stock solution with an initial concentration of 20 mM. The starting concentration of the small molecule compound was 0.2 mM, and the compound underwent 3-fold serial dilution for a total of 10 concentration points, with DMSO at the 11th point. To another 96-well plate was added 95 μL of cell culture medium (DME/F-12+10% FBS), 5 μL of test samples with different concentrations were added to each well, followed by uniform mixing, and then 10 μL of test samples with different concentrations were added to each well, with two duplicate wells set for each sample. The plate was incubated in an incubator for 6 h (37° C., 5% CO2). The 96-well cell culture plate was taken out, and 100 μL of ONE-Glo™ reagent was added to each well, followed by incubation at room temperature for 10 min. The plate was placed in a microplate reader (EnVision 2105, PE) for determination of chemiluminescence.
Data were processed and analyzed using Microsoft Excel and Graphpad Prism 5.

Chain of GLP-1 receptor (P43220 24-463): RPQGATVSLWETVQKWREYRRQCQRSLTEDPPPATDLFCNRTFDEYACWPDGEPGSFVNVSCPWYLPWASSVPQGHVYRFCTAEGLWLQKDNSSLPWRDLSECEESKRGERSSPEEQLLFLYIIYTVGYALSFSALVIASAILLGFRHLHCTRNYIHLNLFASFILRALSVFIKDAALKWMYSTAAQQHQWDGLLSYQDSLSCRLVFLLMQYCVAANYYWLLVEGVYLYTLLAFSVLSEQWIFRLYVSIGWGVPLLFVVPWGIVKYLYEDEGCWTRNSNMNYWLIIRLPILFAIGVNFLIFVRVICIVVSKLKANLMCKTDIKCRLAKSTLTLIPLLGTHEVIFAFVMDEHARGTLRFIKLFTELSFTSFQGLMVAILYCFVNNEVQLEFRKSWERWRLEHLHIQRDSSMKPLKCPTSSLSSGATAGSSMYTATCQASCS

Row | Compound | EC50 [nM] | Emax [%]
1 | O=C(O)c1ccc2nc(CN3CCC(c4cccc5c4OC(c4nc6ccccc6s4)CO5)CC3)n(C[C@@H]3CCO3)c2c1 (stereo partly drawn) [Example 1, 2-((4-(3-(Benzo[d]thiazol-2-yl)-2,3-dihydrobenzo[b][1,4]dioxan-5-yl)piperidin-1-yl)methyl)-1-(((S)-oxetan-2-yl)methyl)-1H-benzo[d]imidazole-6-carboxylic acid] | 0.56 | 109
2 | O=C(O)c1ccc2nc(CN3CCC(c4cccc5c4OCC(c4nc6ccccc6s4)O5)CC3)n(C[C@@H]3CCO3)c2c1 (stereo partly drawn) [Example 9, 2-((4-(2-(Benzo[d]thiazol-2-yl)-2,3-dihydrobenzo[b][1,4]dioxan-5-yl)piperidin-1-yl)methyl)-1-(((S)-oxetan-2-yl)methyl)-1H-benzo[d]imidazole-6-carboxylic acid] | 2.05 | 104
3 | O=C(O)c1ccc2nc(CN3CCC(c4cccc5c4OC[C@H](c4nc6ccccc6s4)O5)CC3)n(C[C@@H]3CCO3)c2c1 [Example 10, 2-((4-((R)-2-(Benzo[d]thiazol-2-yl)-2,3-dihydrobenzo[b][1,4]dioxan-5-yl)piperidin-1-yl)methyl)-1-(((S)-oxetan-2-yl)methyl)-1H-benzo[d]imidazole-6-carboxylic acid] | 1.19 | 103
4 | O=C(O)c1ccc2nc(CN3CCC(c4cccc5c4OC[C@@H](c4nc6ccccc6s4)O5)CC3)n(C[C@@H]3CCO3)c2c1 [Example 11, 2-((4-((S)-2-(Benzo[d]thiazol-2-yl)-2,3-dihydrobenzo[b][1,4]dioxan-5-yl)piperidin-1-yl)methyl)-1-(((S)-oxetan-2-yl)methyl)-1H-benzo[d]imidazole-6-carboxylic acid] | 1.68 | 104
5 | O=C(O)c1ccc2nc(CN3CCC(c4cccc5c4OC(c4ccc(Cl)cc4F)CO5)CC3)n(C[C@@H]3CCO3)c2n1 (stereo partly drawn) [Example 12, 2-((4-(3-(4-Chloro-2-fluorophenyl)-2,3-dihydrobenzo[b][1,4]dioxan-5-yl)piperidin-1-yl)methyl)-3-((S)-oxetan-2-ylmethyl)-3H-imidazo[4,5-b]pyridine-5-carboxylic acid] | 1.72 | 114
6 | CC1(c2ccc(Cl)cc2F)COc2c(cccc2C2CCN(Cc3nc4ccc(C(=O)O)cc4n3C[C@@H]3CCO3)CC2)O1 (stereo partly drawn) [Example 18, 2-((4-(2-(4-Chloro-2-fluorophenyl)-2-methyl-2,3-dihydrobenzo[b][1,4]dioxan-5-yl)piperidin-1-yl)methyl)-1-(((S)-oxetan-2-yl)methyl)-1H-benzo[d]imidazole-6-carboxylic acid] | 18.4 | 103
7 | CC1(c2ccc(Cl)cc2F)COc2cccc(C3CCN(Cc4nc5ccc(C(=O)O)cc5n4C[C@@H]4CCO4)CC3)c2O1 (stereo partly drawn) [Example 20, 2-((4-(3-(4-Chloro-2-fluorophenyl)-3-methyl-2,3-dihydrobenzo[b][1,4]dioxan-5-yl)piperidin-1-yl)methyl)-1-(((S)-oxetan-2-yl)methyl)-1H-benzo[d]imidazole-6-carboxylic acid] | 51 | 90

Further lines, results first:

Row | EC50 [nM] | Emax [%] | Compound
8 | 1.76 | 108 | O=C(O)c1ccc2nc(CN3CCC(c4cccc5c4OC(c4ccc(Cl)cn4)CO5)CC3)n(C[C@@H]3CCO3)c2c1 (stereo partly drawn) [Example 13, 2-((4-(3-(5-Chloropyridin-2-yl)-2,3-dihydrobenzo[b][1,4]dioxan-5-yl)piperidin-1-yl)methyl)-1-(((S)-oxetan-2-yl)methyl)-1H-benzo[d]imidazole-6-carboxylic acid]
9 | 1.79 | 104 | O=C(O)c1ccc2nc(CN3CCN(c4cccc5c4O[C@@H](c4ccc(Cl)cc4F)CO5)CC3)n(C[C@@H]3CCO3)c2c1 [Example 14, 2-((4-((S)-3-(4-Chloro-2-fluorophenyl)-2,3-dihydrobenzo[b][1,4]dioxan-5-yl)piperazin-1-yl)methyl)-1-(((S)-oxetan-2-yl)methyl)-1H-benzo[d]imidazole-6-carboxylic acid]
10 | 1.42 | 116 | N#Cc1ccc(C2COc3cccc(C4CCN(Cc5nc6ccc(C(=O)O)cc6n5C[C@@H]5CCO5)CC4)c3O2)c(F)c1 (stereo partly drawn) [Example 16, 2-((4-(3-(4-Cyano-2-fluorophenyl)-2,3-dihydrobenzo[b][1,4]dioxan-5-yl)piperidin-1-yl)methyl)-1-((S)-oxetan-2-ylmethyl)-1H-benzo[d]imidazole-6-carboxylic acid]
11 | 9.9 | 112 | O=C(O)c1ccc2nc(CN3CC=C(c4cccc5c4OC(c4ccc(Cl)cc4F)CO5)CC3)n(C[C@@H]3CCO3)c2c1 (some centres unmarked) [Example 17]

These molecules were tested against hERG potassium channel (Homo sapiens (Human), UniProt Q12809) (assay: Blocking effect on hERG potassium currents, manual patch-clamp in CHO cells stably expressing hERG channel). Details: read-out: IC50 for the blocking effect on the hERG potassium ion channel.
Chain of hERG potassium channel (Q12809 whole entry): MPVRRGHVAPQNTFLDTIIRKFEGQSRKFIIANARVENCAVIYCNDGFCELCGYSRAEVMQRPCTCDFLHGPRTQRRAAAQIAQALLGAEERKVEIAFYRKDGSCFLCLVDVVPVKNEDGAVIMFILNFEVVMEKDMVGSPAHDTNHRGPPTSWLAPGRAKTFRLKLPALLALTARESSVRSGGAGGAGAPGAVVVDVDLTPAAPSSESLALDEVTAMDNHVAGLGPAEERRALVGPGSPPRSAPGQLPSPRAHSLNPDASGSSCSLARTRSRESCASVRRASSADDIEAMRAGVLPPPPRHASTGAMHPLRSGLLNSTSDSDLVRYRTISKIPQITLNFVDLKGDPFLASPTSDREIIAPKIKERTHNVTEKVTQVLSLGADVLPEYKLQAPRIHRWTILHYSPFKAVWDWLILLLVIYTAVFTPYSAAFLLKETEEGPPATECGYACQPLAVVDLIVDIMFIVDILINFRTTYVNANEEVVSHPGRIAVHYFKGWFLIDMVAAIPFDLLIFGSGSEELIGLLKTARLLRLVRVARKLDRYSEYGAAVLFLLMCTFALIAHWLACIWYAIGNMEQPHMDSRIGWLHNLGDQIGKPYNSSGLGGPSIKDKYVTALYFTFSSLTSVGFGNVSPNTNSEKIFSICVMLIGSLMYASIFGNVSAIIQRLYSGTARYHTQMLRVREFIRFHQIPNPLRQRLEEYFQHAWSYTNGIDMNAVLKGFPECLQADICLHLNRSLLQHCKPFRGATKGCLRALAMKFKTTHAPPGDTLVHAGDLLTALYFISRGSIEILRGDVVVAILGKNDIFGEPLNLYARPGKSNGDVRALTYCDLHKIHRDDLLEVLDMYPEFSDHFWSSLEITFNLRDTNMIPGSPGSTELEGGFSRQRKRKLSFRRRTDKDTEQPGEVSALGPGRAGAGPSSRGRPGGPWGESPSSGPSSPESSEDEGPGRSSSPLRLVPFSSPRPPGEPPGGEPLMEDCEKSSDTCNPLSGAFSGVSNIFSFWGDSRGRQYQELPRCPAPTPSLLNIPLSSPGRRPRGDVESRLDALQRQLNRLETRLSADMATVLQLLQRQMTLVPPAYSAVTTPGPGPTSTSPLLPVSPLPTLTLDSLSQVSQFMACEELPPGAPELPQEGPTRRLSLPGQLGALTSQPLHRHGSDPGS
Type: cell-based
Text: This example is intended to assess the blocking effect of the compounds of the present disclosure and positive compound 1 (see the compound of Example 7 on page 125 of WO2019239319A1) on hERG potassium currents in a stable cell strain transfected with an hERG potassium channel by a manual patch-clamp assay. The structure of positive compound 1 is shown below:
The cells used in this experiment were from a CHO cell line (provided by Sophion Bioscience, Denmark) transfected with hERG cDNA and stably expressing hERG channel at cell passage number of P5. Cells were cultured in a medium containing the following components (all from Invitrogen): Ham's F12 medium, 10% (v/v) inactivated fetal bovine serum, 100 μg/mL hygromycin B, and 100 μg/mL geneticin.
CHO hERG cells were grown in a culture dish containing the above culture medium and cultured in an incubator at 37° C. with 5% CO2. 24-48 h before the electrophysiological experiment, CHO hERG cells were transferred to round slides placed in the culture dish and grown in the same culture medium and culture conditions as above. The density of CHO hERG cells on each round slide was required to achieve the requirement that most cells were independent and individual.
In this experiment, a manual patch-clamp system (HEKA EPC-10 signal amplifier and digital conversion system, purchased from HEKA Electronics, Germany) was used for whole cell current recording. Round slides with CHO hERG cells grown on the surface were placed in an electrophysiological recording chamber under an inverted microscope. The chamber was continuously perfused with extracellular fluid (approximately 1 mL/min). The experimental procedures were performed by conventional whole-cell patch-clamp current recording technology. Unless otherwise stated, the experiment was performed at room temperature ([…]). The cells were clamped at a voltage of −80 mV. The cell clamp voltage was depolarized to +20 mV to activate the hERG potassium channel, and then clamped to −50 mV 5 s later to eliminate inactivation and generate tail currents. The tail current peak was used as a value for the numeral value of the hERG current. After the hERG potassium currents recorded in the above step were stable under the continuous extracellular fluid perfusion in the recording chamber, the drug to be tested could be added for perfusion until the inhibitory effect of the drug on the hERG current reached a stable state. Generally, the last superposition of 3 consecutive current recording lines is used as a criterion for determining whether a stable state is reached. […]
The experimental data were analyzed by data analysis software supplied by HEKA Patchmaster(V2x73.2), Microsoft Excel, and Graphpad Prism 5.0. […]

Row | Compound | IC50 [nM]
12 | O=C(O)c1ccc2nc(CN3CCC(c4cccc5c4OC(c4ccc(Cl)cc4F)CO5)CC3)n(C[C@@H]3CCO3)c2n1 (stereo partly drawn) [Example 12, 2-((4-(3-(4-Chloro-2-fluorophenyl)-2,3-dihydrobenzo[b][1,4]dioxan-5-yl)piperidin-1-yl)methyl)-3-((S)-oxetan-2-ylmethyl)-3H-imidazo[4,5-b]pyridine-5-carboxylic acid] | 26100
